Experiment [1] addresses T1, BT1017-CM (Bacteroides thetaiotaomicron, UniProt Q8A900).
T1 construct: gene BT_1017; crystal model residues 20-462 (text also gives module as 20-400); C-terminal His6; E. coli Tuner(DE3)
T1 sequence (Q8A900 20-462): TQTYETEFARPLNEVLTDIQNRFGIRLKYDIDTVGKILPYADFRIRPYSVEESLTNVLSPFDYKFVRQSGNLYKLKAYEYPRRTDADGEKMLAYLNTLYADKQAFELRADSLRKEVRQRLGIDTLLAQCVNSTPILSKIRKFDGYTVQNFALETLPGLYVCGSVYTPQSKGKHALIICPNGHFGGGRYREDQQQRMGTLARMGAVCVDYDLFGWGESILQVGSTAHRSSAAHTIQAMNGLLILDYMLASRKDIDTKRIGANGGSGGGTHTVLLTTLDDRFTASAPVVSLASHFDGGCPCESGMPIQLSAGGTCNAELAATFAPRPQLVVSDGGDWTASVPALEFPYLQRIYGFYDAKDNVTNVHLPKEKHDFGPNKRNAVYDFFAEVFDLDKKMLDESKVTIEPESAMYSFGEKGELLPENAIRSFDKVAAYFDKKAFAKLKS
The experiment can be described thus: coupled spectrophotometric methanol release assay. To be noted: 1.7 μM enzyme, pH and temperature not given (optimum pH 8.5, 37 °C), read-out: BT1017 constructs / BT1017-CM. The experiment is classed as biochemical. An excerpt: coupled spectrophotometric methanol release assay on BT1017-CM

For experiment [2], the target named is T2, BT1017-SP (Bacteroides thetaiotaomicron, UniProt Q8A900).
T2 construct: gene BT_1017
T2 sequence (Q8A900 21-653): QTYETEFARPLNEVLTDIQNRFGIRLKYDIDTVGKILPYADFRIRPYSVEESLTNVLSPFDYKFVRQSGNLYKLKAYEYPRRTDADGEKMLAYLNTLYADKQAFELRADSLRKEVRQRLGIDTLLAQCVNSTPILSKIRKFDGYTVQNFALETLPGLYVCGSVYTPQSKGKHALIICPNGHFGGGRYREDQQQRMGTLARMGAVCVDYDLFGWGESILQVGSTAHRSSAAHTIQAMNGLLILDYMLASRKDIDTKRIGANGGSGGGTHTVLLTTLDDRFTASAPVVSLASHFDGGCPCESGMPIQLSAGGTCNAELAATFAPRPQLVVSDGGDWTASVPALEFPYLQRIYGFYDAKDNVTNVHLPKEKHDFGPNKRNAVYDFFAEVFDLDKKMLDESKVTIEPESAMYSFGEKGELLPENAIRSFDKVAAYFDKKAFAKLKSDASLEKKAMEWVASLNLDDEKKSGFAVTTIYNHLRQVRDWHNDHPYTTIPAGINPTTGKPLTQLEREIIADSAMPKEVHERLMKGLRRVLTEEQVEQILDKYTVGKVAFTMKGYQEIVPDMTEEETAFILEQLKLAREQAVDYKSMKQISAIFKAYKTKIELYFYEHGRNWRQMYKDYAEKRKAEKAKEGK
The experiment is described as follows: coupled spectrophotometric methanol release assay. It is filed as biochemical. As to conditions: 1.7 μM enzyme, read-out: BT1017 constructs / BT1017-SP. An excerpt: coupled spectrophotometric methanol release assay on BT1017-SP

Like-named read-outs stand apart in the source and are kept apart here.

Turning to “GlcA-β1,4-(2-O-Me-Xyl-α1,3)-Fuc-α1,4-(GalA-β1,3)-Rha-α1,3-Api-β1,2-(Araf-α1,3)-(GalA-α1,4)-GalA [ΔBT1017oligoB]”, the Km in experiment [1] (0.046–1.38 mM substrate) amounted to 400 ± 70 µM; in experiment [2] (0.046–1.38 mM substrate, pH and temperature of the kinetics not stated (optimum pH 8.5, 37 °C)) it was 200 ± 30 µM.

“Rha-α1,3-Api-β1,2-(Araf-α1,3)-(6-O-Me-GalA-α1,4)-GalA [ΔBT1017oligoA]”: the Km in experiment [1] (0.09–3.47 mM substrate) amounted to 1000 ± 200 µM; in experiment [2] (0.09–3.47 mM substrate, pH and temperature not given (optimum pH 8.5, 37 °C)), 3000 ± 400 µM.

The values above are taken from publication PMC7939467, “Ascertaining the biochemical function of an essential pectin methylesterase in the gut microbe Bacteroides thetaiotaomicron” (The Journal of Biological Chemistry, 2021).
